Experimental data published in patent publication US20160251402A1, “MICROPEPTIDES AND USE OF SAME FOR MODULATING GENE EXPRESSION” (UNIVERSITE PAUL SABATIER TOULOUSE III, priority 2013, published 2016).

Columns and labels:
HsmiR155 = assay: Relative expression of Pre-miR155 in transfected HeLa cells; assay type: cell-based, Homo sapiens; settings: HeLa cells transfected to overexpress HsmiPEP155
Description: The DNA fragments of interest (HsmiPEP155 and the mutated miPEP) were synthesized or amplified by PCR using specific primers, and then cloned using the enzymes XhoI and NotI into a pUAS plasmid permitting their overexpression by means of the GAL4 transcription factor, the expression of which is controlled by a constitutive strong promoter.
The different constructs were produced either by PCR amplification on genomic DNA of HeLa cells, or by RT-PCR on total RNAs of L428 human cells. The amplified PCR fragments are digested with the HindIII/EcoRI restriction enzymes and then cloned into the vector pcDNA3.1. The DH5α strain of Escherichia coli is electroporated and then cultured on a solid medium (2YT+agar+ampicillin). The plasmid DNA from different clones is then prepared and sequenced for verification. The constructs are then prepared using the QIAfilter Plasmid Midi kit (QIAGEN) and stored at −20° C.
The HeLa cells (established tumour line, ATCC CCL-2.2) are cultured in a 6-well plate in complete medium [(DMEM (1x)+Glutamax+4.5 g/L glucose without pyruvate+1x penicillin/streptomycin+1 mM Na-pyruvate+10% calf serum] and placed in an incubator at 37° C. and 5% CO2.
The cells are transfected when they are at 50% confluence. […]
10-15 μg of total RNAs is then analysed by Northern blot on 15% acrylamide gel [solution of acrylamide/40% bis-acrylamide, ratio 19:1], 7M urea in TBE 1x. […]

AtmiR164a [1] = assay: Northern blot of AtmiR164a in A. thaliana roots; assay type: in vivo, Arabidopsis thaliana; settings: 0.1 μM synthetic peptide dissolved in water vs water; U6 loading control
Procedure: Northern blot analysis was carried out according to the protocol described in Lauressergues et al. Plant J., 72(3): 512-22, 2012.
The biological samples were homogenized in a buffer containing 0.1 M of NaCl, 2% of SDS, 50 mM of Tris-HCl (pH 9), 10 mM of EDTA (pH 8) and 20 mM of mercaptoethanol, and the RNA was extracted twice with a phenol/chloroform mixture and was precipitated with ethanol.
The RNA was loaded on PAGE 15% gel and transferred to a nylon membrane (HybondNX, Amersham). RNA was hybridized with a radioactive oligonucleotide probe labelled at its end, in order to detect the RNA U6 or for miR164a.
The hybridizations were carried out at 55° C. The hybridization signals were quantified using a phosphorimager (Fuji) and normalized with the signal of the specific probe of RNA U6.

AtmiR164a [2] = assay: Relative expression of AtmiR164a in A. thaliana (qRT-PCR); assay type: in vivo, Arabidopsis thaliana; settings: plant watered once a day with peptide at 0.1 μM vs control plant
Arabidopsis thaliana = assay: Plant growth of Arabidopsis thaliana after 3 weeks of watering; assay type: in vivo; settings: watered with 0.1 μM of synthetic peptide, 3 weeks of growth, vs water
AtmiR165a [3] = assay: Accumulation of AtmiR165a in the model plant of tobacco; assay type: in vivo, Nicotiana benthamiana; settings: tobacco expressing AtmiR165a, overexpression of AtmiORF165a
Procedure: At present, AtmiPEP165a and AtmiPEP319a2, identified in Arabidopsis thaliana, have already been characterized.
(§1) The total RNA was extracted from roots of M. truncatula or from tobacco leaves using the extraction kit RNeasy Plant Mini Kit (Qiagen). The reverse transcription was performed using the reverse transcriptase SuperScript II (Invitrogen) starting from 500 ng of total RNA. Three repetitions (n=3) were carried out, each with two technical repetitions. Each experiment was repeated from two to three times. The amplifications by qPCR were carried out using a LightCycler 480 System thermocycler (Roche Diagnostics) by the method described in Lauressergues et al. (Plant J., 72(3): 512-22, 2012).
For the miPEPs 165a and 319a, the corresponding miORFs were cloned into pBIN19 by the method described in Combier et al. (Genes & Dev, 22: 1549-1559, 2008).
The composite plants having roots transformed with Agrobacterium rhizogenes were obtained by the method described in Boisson-Dernier et al. (Mol Plant-Microbe Interact, 18: 1269-1276, 2005). The transformed roots were verified and selected by observations of DsRED with a binocular fluorescence magnifier. The control roots correspond to roots transformed with A. rhizogenes not containing the pPEX-DsRED vector. Transformation of the tobacco leaves was carried out by the method described in Combier et al. (Genes & Dev, 22: 1549-1559, 2008).

[4] = test system: Arabidopsis thaliana root growth; assay: Root growth in Arabidopsis thaliana; assay type: in vivo; settings: plant treated with AtmiPEP165a vs control plant of the same age
AtmiR165a [5] = assay: Accumulation of AtmiR165a in roots of A. thaliana (relative expression); assay type: in vivo, Arabidopsis thaliana; settings: roots treated with 0.01, 0.1, 1 or 10 μM peptide vs water
PHAVOLUTA: PHV = assay: Expression of PHAVOLUTA (PHV) in roots of A. thaliana; assay type: in vivo, Arabidopsis thaliana; settings: roots treated with 0.01, 0.1, 1 or 10 μM peptide vs water
PHABOLUSA: PHB = assay: Expression of PHABOLUSA (PHB) in roots of A. thaliana; assay type: in vivo, Arabidopsis thaliana; settings: roots treated with 0.01, 0.1, 1 or 10 μM peptide vs water
REVOLUTA: REV = assay: Expression of REVOLUTA (REV) in roots of A. thaliana; assay type: in vivo, Arabidopsis thaliana; settings: roots treated with 0.01, 0.1, 1 or 10 μM peptide vs water
AtmiR165a [6] = assay: Northern blot of AtmiR165a in A. thaliana roots; assay type: in vivo, Arabidopsis thaliana; settings: 0.1 μM synthetic peptide dissolved in water vs water; U6 loading control
pri-miR165a [7] = assay: Relative expression of pri-miR165a in A. thaliana (Col-0 and nrpb2-3); assay type: in vivo, Arabidopsis thaliana
Description: Moreover, to determinate the mode of action of miPEPs regarding the accumulation of their own miRs, the expression of pri-miR165a has been analysed in wildtype plants and in plants that have been transformed to overexpress miPEP165a (FIG. 35).
Moreover, the expression of pri-miR165a has been analysed in wildtype plants (Col-0 plants) and in mutated plants having a low allele of the second large subunit of RNA polymerase II (nrpb2-3 plants). […] It appears that the miPEP operates as a transcription regulator.
as §1

pri-miR165a [8] = assay: RNA stability of pri-miR165a in the presence of cordycepin; assay type: in vivo, Arabidopsis thaliana; settings: in the presence of cordycepin (inhibitor of RNA synthesis), peptide at 10 μM
Procedure: For each condition, two week old plants that have been cultivated vertically on solid MS medium have been transferred in 6-well plates containing 1 ml of liquid MS medium. […] Each indivual experiment has been made 3 times.

MEMALMVAQTRKGKSVV (listed as Homo sapiens) [HsmiPEP155]
relative expression of Pre-miR155 (HsmiR155): increases the expression of HsmiR155

MPSWHGMVLLPYVKHTHASTHTHTHNIYGCACELVFH [AtmiPEP164a1]
accumulation of AtmiR164a (Northern blot) (AtmiR164a [1]): increase in the accumulation of miR164a
relative expression of AtmiR164a (AtmiR164a [2]): increase in the relative expression of AtmiR164a
plant growth (Arabidopsis thaliana): increases plant growth significantly

MRVKLFQLRGMLSGSRIL (listed as Arabidopsis thaliana) [AtmiPEP165a]
accumulation of AtmiR165a (AtmiR165a [3]): increase in the accumulation
root growth phenotype [4]: greatly accelerated root growth
relative expression of AtmiR165a (AtmiR165a [5]): dose-dependent effect of the accumulation of AtmiR165a
relative expression of AtmiR165a (AtmiR165a [5]; listed as miPEP165a): dose-dependent effect on the accumulation of miR165a
relative expression of PHV (PHAVOLUTA: PHV): negative regulation of its target genes
relative expression of PHB (PHABOLUSA: PHB): negative regulation of its target genes
relative expression of REV (REVOLUTA: REV): negative regulation of its target genes
accumulation of AtmiR165a (Northern blot) (AtmiR165a [6]): increase in the accumulation of miR165a
relative expression of pri-miR165a (pri-miR165a [7]; nrpb2-3 mutated plants vs wildtype (Col-0), water or peptide at 10 μM): not capable of accumulating AtmiR165a in response to AtmiPEP165a
relative expression of pri-miR165a (pri-miR165a [7]; nrpb2-3 mutated plants vs wildtype (Col-0), water or peptide at 10 μM, listed as miPEP165a): mutated plants do not show an increase in the accumulation of pri-miR165 in response to miPEP165a
expression of pri-miR165a (pri-miR165a [7]; plants that overexpress miPEP165a vs wildtype plants): enhanced
relative expression of pri-miR165a (pri-miR165a [7]; roots watered once a day with peptide at 10 μM vs control roots): increase in the relative expression of AtmiR165a
stability of pri-miR165a (pri-miR165a [8]): does not induce a better stability of pri-miR165a
stability of pri-miR165a (pri-miR165a [8]; listed as miPEP165a): does not operate as a RNA stabilizer, but rather as a transcription activator of pri-miR165a
